Consider one substance from patent US8034314B2, “Photoreactive compound specifically binding to calcium binding proteins” (priority 2004, dated 2011).

One test deals with Yeast hexokinase. The experiment in a line: Yeast hexokinase activity. In kind it is biochemical. The conditions noted are these: mean ± SEM. The text has this: Unlabelled ryanodine was obtained from Calbiochem. […] Ruthenium chloride was purchased from Aldrich.
Test [1] deals with Succinate-cytochrome c oxido-reductase. The experiment in a line: Electron transport from succinate to cytochrome c in mitochondria. It is filed as biochemical, rat. Here is the method:
Sarcoplasmic reticulum (SR) membranes were prepared from rabbit fast twitch skeletal muscle as described by Saito [Saito et al.: J. Cell Biol. 99 (1984) 875-85]. Mitochondria were isolated from rat liver as described by us previously [Gincel D. et al.: Biochem J. 358 (2001) 147-55]. VDAC was purified by a method developed in our laboratory, using columns of hydroxyapatite and reactive red agarose [Gincel D. et al.: J. Bioenerget. Biomembr. 32 (2000) 571-83].
Ca^2+-accumulation in freshly prepared mitochondria (0.5 mg/ml) was assayed for 1 to 20 minutes at 30° C. in the presence of 225 mM mannitol, 75 mM sucrose, 120 μM CaCl2 (containing 3×10^4 cpm/nmol ^45Ca^2+), 5 mM HEPES/KOH pH 7.0, and 5 mM succinate with 0.1 mM Pi, or 4 mM MgCl2 with 3 mM ATP. The Ca^2+-uptake was terminated by rapid Millipore filtration, followed by a wash with 5 ml of 0.15 M KCl. The Ca^2+-accumulation in SR was determined as described previously [Shoshan-Barmatz V. & Shaineberg A.: Biochim. Biophys. Acta 1065 (1991) 82-8]. Electron transport from succinate to cytochrome c was described in above cited article [Gincel D. et al.: J. Bioenerget. Biomembr. 32 (2000) 571-83].
The effect of AzRu on mitochondrial process of electron transport from the donor succinate to the acceptor cytochrome c was characterized as described above. […]

For the substance azido-ruthenium [AzRu], the “Activity (% of control), Yeast hexokinase” value in the test with Yeast hexokinase (AzRu 20 μM) is given as 77 ± 5 % of control; in the test with Yeast hexokinase (AzRu 100 μM) it was 64 ± 4 % of control. Further, the “Activity (% of control), Succinate-cytochrome c oxido-reductase” value in test [1] (AzRu 100 μM, mean ± SEM) is 95 ± 5 % of control. The “Effect on electron transfer from succinate to cytochrome c in mitochondria” value in test [1] (isolated mitochondria, FIG. 7) is “not affected”.
